Patent publication US5026698A, “Thienopyridine type mevalonolactones” (Nissan Chemical Industries, Ltd., priority 1988, dated 1991)

Assays:
cholesterol biosynthesis [1] = assay: Test C: Inhibition of cholesterol biosynthesis in vivo; set-up: species or system Male Sprague-Dawley rats; settings: oral, 0.2 mg/kg, rats; DPM/2 ml serum/2 hours
Description: Male Sprague-Dawley rats weighing about 150 g were fed normal Purina chow diet and water ad libitum, and exposed to 12 hours light/12 hours dark lighting pattern (2:00 PM-2:00 AM dark) prior to use for in vivo inhibition test of cholesterol biosynthesis. Animals were separated groups consisting of five rats as to be average mean body weight in each groups. Test compounds at dosage of 0.02-0.2 mg/kg body weight (0.4 ml/100 g body weight), were dissolved in water or suspended in 0 5% methyl cellulose and orally administered at 2-3 hours before mid-dark (8:00 PM), while cholesterol biosynthesis reaches to maximum in rats. As control, rats were orally administered only water or vehicle. At 90 minutes after sample administration, rats were injected intraperitoneally with 10 μCi of [2-^14 C]sodium acetate at volume of 0.2 ml per one. 2 Hours later, blood samples were obtained and serum were separated immediately. Total lipids were extracted according to the method of Folch et al. and saponified with EtOH-KOH. Nonsaponifiable lipids were extracted with petroleum ether and radio activity incorporated into nonsaponifiable lipids was counted.
Inhibitory activity was indicated as percent decrease of counts in testing groups (DPM/2 ml serum/2 hours) from that in control group.

[2] = test system: cholesterol biosynthesis in Hep G2 cells; assay: Test B-1: Inhibition of cholesterol biosynthesis in culture cells (Hep G2, [2-14C]sodium acetate added at 0 hr); format: cell-based; settings: for Relative activities by Test B-1: based on the activity of CS-514 by Test B-1 being evaluated to be 1; for inhibition at 1 µM: 1.0 × 10^-6 mol/l, read-out: Inhibitory activities at a concentration of 1.0 × 10^-6 mol/l by Test B-1 (Relative activities)
Description: Hep G2 cells at over 5th passage were seeded to 12 well plates and incubated with Dulbecco's modified Eagle (DME) medium containing 10% of fetal bovine serum (FBS) at 37° C., 5% CO2 until cells -were confluent for about 7 days. Cells were exposed to the DME medium containing 5% of lipoprotein deficient serum (LpDS) prepared by ultracentrifugation method for over 24 hours. Medium was changed to 0.5 ml of fresh 5% LpDS containing DME before assay and 10 μl of test compound solution dissolved in water or DMSO were added. 0.2 μCi of [2-^14 C]sodium acetate (20 μl) was added at 0 hr(B 1) or 4 hrs(B 2) after addition of compounds. After 4 hrs further incubation with [2-^14 C]sodium acetate, medium was removed and cells were washed with phosphate buffered saline (PBS) chilled at 4° C. Cells were scraped with rubber policeman and collected to tubes with PBS and digested with 0.2 ml of 0.5N KOH at 37° C. Aliquot of digestion was used for protein analysis and remaining was saponified with 1 ml of 15% EtOH-KOH at 75° C. for 1 hour. Nonsaponifiable lipids were extracted with petroleum ether and ^14 C radioactivity was counted. Counts were revised by cell protein and indicated with DPM/mg protein. Inhibitory activity of compounds was indicated with IC50. With respect to the compounds of the present invention, the inhibitory activities against the cholesterol biosynthesis in which HMG-CoA reductase serves as a rate limiting enzyme, were measured by the above Test A and B.

cholesterol biosynthesis [3] = assay: Test A: Inhibition of cholesterol biosynthesis from acetate in vitro (rat liver microsome and sup fraction, [2-14C]sodium acetate); format: biochemical, male Wistar rat; settings: for Relative activities by Test A: based on the activity of CS-514 by Test A being evaluated to be 1
Description: Enzyme solution was prepared from liver of male Wistar rat billialy connulated and discharged bile for over 24 hours. Liver was cut out at mid-dark and microsome and supernatant fraction which was precipitable with 40-80% of solution of ammonium sulfate (sup fraction) were prepared from liver homogenate according to the modified method of Knauss et. al.; Kuroda, M., et. al., Biochim. Biophys. Acta, 489, 119 (1977). For assay of cholesterol biosynthesis, microsome (0.1 mg protein) and sup fraction (1.0 mg protein) were incubated for 2 hours at 37° C. in 200 μl of the reaction mixture containing ATP; 1 mM, Glutathione; 6 mM, Glucose-1-phosphate; 10 mM, AND; 0.25 mM, NADP; 0.25 mM, CoA; 0.04 mM and 0.2 mM [2-^14 C]sodium acetate (0.2 μCi) with 4 μl of test compound solution dissolved in water or dimethyl sulfoxide. To stop reaction and saponify, 1 ml of 15% EtOH-KOH was added to the reactions and heated at 75° C. for 1 hour. Nonsaponifiable lipids were extracted with petroleum ether and incorporated ^14 C radioactivity was counted. Inhibitory activity of compounds was indicated with IC50.
With respect to the compounds of the present invention, the inhibitory activities against the cholesterol biosynthesis in which HMG-CoA reductase serves as a rate limiting enzyme, were measured by the above Test A and B. The results are shown in Tables 2, 3-1 and 3-2.
The relative activities of the compounds of the present invention based on the activities of CS-514 by Test A being evaluated to be 1, are shown in Table 2.

Test D: Acute toxicity = settings: mouse, in vivo, 1000 mg/kg; oral, 1,000 mg/kg, 0.5% CMC suspension, ICR male mice (group of three); read-out: mortality after seven days
Description: A 0.5% CMC suspension of a test compound was orally administered to ICR male mice (group of three mice). The acute toxicity was determined based on the mortality after seven darys. With compound I-5-1, I-5-2, I-5-8, I-5-9 and I-5-10 of the present ivnention, the mortality was 0% even when they were orally administered in an amount of 1,000 mg/kg, respectively.

[4] = Homo sapiens, HepG2, Hep G2 cells

Structure (SMILES) | Relative activities by Test B-1 [2] | Relative activities by Test A (cholesterol biosynthesis [3]) | mortality at 168 h (Test D: Acute toxicity) | inhibition at 1 µM [2, 4] | further results
O=C1C[C@H](O)C[C@@H](/C=C/c2c(C3CC3)nc3sccc3c2-c2ccc(F)cc2)O1 (relative stereo) [Compound I-3-11, (E)-trans-6-[2'-(6"-cyclopropyl-4"-(4"'-fluorophenyl)-thieno[2,3-b]pyridin-5"-yl)ethenyl]-4-hydroxy-3,4,5,6-tetrahydro-2H-pyran-2-one] | – | – | – | – | percent decrease of counts relative to control group (Test C) (cholesterol biosynthesis [1]): 68%
CC[C@H](C)C(=O)O[C@H]1C[C@H](O)C=C2C=C[C@H](C)[C@H](CC[C@@H](O)C[C@@H](O)CC(=O)O)[C@H]21 [CS-514, reference compound] | – | – | – | – | IC50 ([2]; Homo sapiens, HepG2, Hep G2 cells, [2-14C]sodium acetate added at 0 hr): 1370 nM; IC50 (cholesterol biosynthesis [3]; rat liver microsome + sup fraction, 2 hours at 37° C.): 9 nM; percent decrease of counts relative to control group (Test C) (cholesterol biosynthesis [1]): 34%
CCOC(=O)CC(O)CC(O)/C=C/c1c(C(C)C)nc2sc(C)c(CC)c2c1-c1ccc(F)cc1 (stereo not shown) [Compound I-1-1, Ethyl (E)-7-[3'-ethyl-4'-(4"-fluorophenyl)-2'-methyl-6'-(1"-methylethyl)thieno[2,3-b]pyridin-5'-yl]-3,5-dihydroxyhept-6-enoate] | 196 | 0.50 | – | – | –
CCc1c(C)sc2nc(C(C)C)c(/C=C/C(O)CC(O)CC(=O)O)c(-c3ccc(F)cc3)c12 (stereo not shown) [Compound I-5-1, Sodium (E)-7-[3'-ethyl-4'-(4"-fluorophenyl)-2'-methyl-6'-(1"-methylethyl)thieno[2,3-b]pyridin-5'-yl]-3,5-dihydroxyhept-6-enoate] | 152 | 0.55 | 0% | – | –
Cc1cc2c(-c3ccc(F)cc3)c(/C=C/C(O)CC(O)CC(=O)O)c(C(C)C)nc2s1 (stereo not shown) [Compound I-5-2] | 76 | 0.51 | 0% | – | –
CC(C)c1nc2sc(-c3ccccc3)cc2c(-c2ccc(F)cc2)c1/C=C/C(O)CC(O)CC(=O)O (stereo not shown) [Compound I-5-3] | – | – | – | 46.8% | –
Cc1sc2nc(C(C)C)c(/C=C/C(O)CC(O)CC(=O)O)c(-c3ccc(F)cc3)c2c1-c1ccccc1 (stereo not shown) [Compound I-5-4] | 1.4 | – | – | 48.2% | –
CC(C)c1cc2c(-c3ccc(F)cc3)c(/C=C/C(O)CC(O)CC(=O)O)c(C(C)C)nc2s1 (stereo not shown) [Compound I-5-5] | 62 | 0.31 | – | 69.8% | –
CC(C)c1nc2sc3c(c2c(-c2ccc(F)cc2)c1/C=C/C(O)CC(O)CC(=O)O)CCCC3 (stereo not shown) [Compound I-5-6] | 152 | 4.1 | – | – | –
CCc1c(C)sc2nc(C3CC3)c(/C=C/C(O)CC(O)CC(=O)O)c(-c3ccc(F)cc3)c12 (stereo not shown) [Compound I-5-7] | – | 0.36 | – | 64.1% | –
CC(C)c1nc2sc3c(c2c(-c2ccc(F)cc2)c1/C=C/C(O)CC(O)CC(=O)O)CCC3 (stereo not shown) [Compound I-5-8] | – | 0.32 | 0% | 63.6% | –
O=C(O)CC(O)CC(O)/C=C/c1c(C2CC2)nc2sc3c(c2c1-c1ccc(F)cc1)CCC3 (stereo not shown) [Compound I-5-9] | – | 2.9 | 0% | 62.4% | –
O=C(O)CC(O)CC(O)/C=C/c1c(C2CC2)nc2sc3c(c2c1-c1ccc(F)cc1)CCCCC3 (stereo not shown) [Compound I-5-10] | – | 0.21 | 0% | 53.6% | –
O=C(O)CC(O)CC(O)/C=C/c1c(C2CC2)nc2sccc2c1-c1ccc(F)cc1 (stereo not shown) [Compound I-5-11] | 60 | – | – | – | percent decrease of counts relative to control group (Test C) (cholesterol biosynthesis [1]): 65%
CCOC(=O)CC(=O)CC(O)/C=C/c1c(C(C)C)nc2sc(C)cc2c1-c1ccc(F)cc1 (stereo not shown) [II-2] | 152 | – | – | – | –
